{"source": "patent US20060124903A1", "about": "“Aerosol preparation comprising sealed container and enclosed therein aerosol composition containing marcolide compound” (Astellas Pharma Inc., priority 2003, published 2006)", "key": {"[1]": {"test": "Content of tacrolimus solvable in liquefied hydrofluoroalkane", "format": "physicochemical", "conditions": "liquefied hydrofluoroalkane (HFA-134a, HFA-227)"}, "[2]": {"test": "Adsorptivity of tacrolimus to resinous material constituting valve part (FIG. 3)", "format": "physicochemical", "text": "FIG. 3 illustrates the adsorptivity of the active ingredient contained in the aerosol composition to each sample resinous material soaked in the aerosol composition.\nThe axis of ordinates designates the ratio of (remaining) active ingredient in the aerosol composition to the initial active ingredient therein when the percentage of the initial active ingredient contained in the aerosol composition is 100%.\nThe aerosol composition used in the test of FIG. 3 contains a 0.025 wt % macrolide compound. To be concrete, the aerosol composition is a solution that contains 2.5 mg tacrolimus serving as the active ingredient, 10 ml liquefied hydrofluoroalkane (HFA-134a) serving as the propellant, and a little amount of lubricant normally used for metered dose inhalation.\nIn the test of FIG. 3, each of the sample resinous materials is formed into a circular shape having a 5 mm diameter (a 39 mm^2 surface area), similar to the form of first gasket 11. Each of the sample resinous materials is soaked in the aerosol composition solution under the condition of 75% relative humidity and 50° C. for a month. […]"}}, "data": [{"compound": "C=CC[C@@H]1/C=C(\\C)C[C@H](C)C[C@H](OC)[C@H]2O[C@@](O)(C(=O)C(=O)N3CCCC[C@H]3C(=O)O[C@H](/C(C)=C/[C@@H]3CC[C@@H](O)[C@H](OC)C3)[C@H](C)[C@@H](O)CC1=O)[C@H](C)C[C@@H]2OC", "note": "[tacrolimus]", "values": [{"measurement": "content of the tacrolimus solvable in the liquefied hydrofluoroalkane", "setting": "[1]", "result": "not more than 0.15 wt %"}]}, {"compound": "polyethylene", "values": [{"measurement": "ratio of (remaining) active ingredient in the aerosol composition to the initial active ingredient", "setting": "[2]", "result": "scarcely reduced"}]}, {"compound": "polypropylene", "values": [{"measurement": "ratio of (remaining) active ingredient in the aerosol composition to the initial active ingredient", "setting": "[2]", "result": "scarcely reduced"}]}]}
